The values below come from article PMC9854762, “Antibiofilm and Anti-Quorum-Sensing Activities of Novel Pyrazole and Pyrazolo[1,5-a]pyrimidine Derivatives as Carbonic Anhydrase I and II Inhibitors: Design, Synthesis, Radiosterilization, and Molecular Docking Studies” (Antibiotics, 2023).

In brackets after ≈: the same amount, converted by molar mass.

The MIC is the smallest concentration in the dilution series that meets the test's criterion for growth inhibition. As a reminder, the melting point is the temperature, or range, at which the solid turns liquid.

Series [1] has as its system A. baumannii DH-243. Briefly: Agar well-diffusion assay. It is filed as cell-based. As to conditions: Acinetobacter baumannii, DH243; A. baumannii DH-243; 50 µL of 10 mM per well; read-out: Diameter of Inhibition Zones (AZOI). The method, then: (§1) The synthesized compounds were initially screened for their in vitro antibacterial activity against the different Gram-positive and Gram-negative bacteria, tested using the agar well-diffusion assay. The turbidity of the bacterial suspensions was established to the 0.5 McFarland turbidity standard. The activity was performed on TS agar plates. The bacteria were spread on the surface of the agar plates, and 10 mm wells were screwed into the agar plates. The assay was performed under aseptic conditions. An aliquot of 50 µL of each tested compound (10 mM) was added to the wells, and the plates were incubated overnight at 37 °C. Both Erythromycin and Amikacin antibiotic disks were used as positive control, while DMSO solvent was used as a negative control in this study. The diameters of inhibition zones were measured and recorded in mm. A comparative study of the synthesized compounds was determined. The experiment was performed in triplicates.
A general note: Agar diffusion results depend on both activity and mobility in agar.

In series [2] the test system is E. coli DH-5987. As to the kind of experiment: Agar well-diffusion assay. It is filed as cell-based. As to conditions: Escherichia coli, DH5987, 50 µL of 10 mM per well, read-out: Diameter of Inhibition Zones (AZOI). The method, then:
as §1

Series [3] deals with E. faecalis DH-5478. As to the kind of experiment: Agar well-diffusion assay. It is filed as cell-based. As to conditions: Enterococcus faecalis, DH5478; E. faecalis DH-5478; 50 µL of 10 mM per well; read-out: Diameter of Inhibition Zones (AZOI). As to the method: as §1
The test system of series [4] is S. aureus DH-432. Briefly: Agar well-diffusion assay. It is filed as cell-based. As to conditions: Staphylococcus aureus, DH432; S. aureus DH-432; 50 µL of 10 mM per well; read-out: Diameter of Inhibition Zones (AZOI). The method, then:
as §1

Series [5] deals with S. pyogenes DH-3467. Briefly: Agar well-diffusion assay. As to conditions: Streptococcus pyogenes, DH3467; S. pyogenes DH-3467; 50 µL of 10 mM per well; read-out: Diameter of Inhibition Zones (AZOI). It is filed as cell-based. The method, then: as §1
For series [6], the system named is P. aeruginosa DH-5698. As to the kind of experiment: Agar well-diffusion assay. It is filed as cell-based, Pseudomonus aeruginosa. As to conditions: Pseudomonas aeruginosa, DH5698; P. aeruginosa DH-5698; 50 µL of 10 mM per well; read-out: Diameter of Inhibition Zones (AZOI). As to the method:
as §1

Series [7] concerns E. faecalis DH-5478. As to the kind of experiment: Broth microdilution MIC/MBC. It is filed as cell-based, Enterococcus faecalis. As to conditions: for MIC: Enterococcus faecalis, DH5478, 24 h, read-out: MIC (Mean ± SEM); for MBC/MIC: value in brackets. As to the method: (§2) The broth microdilution method was taken as a basis to detect the MICs of pyrazole compounds against tested clinical isolates, according to the Clinical Laboratory and Standards Institute guidelines. The broth cultures were used to prepare the bacterial inoculums, and the suspensions were adjusted to the standard 0.5 McFarland turbidity. Stock solutions of the synthesized pyrazoles were prepared in pure DMSO and further serially diluted with TS broth in the concentration range from 128 µg/mL to 0.0625 µg/mL. A well containing noninoculated TS broth, free of any antimicrobial agents, was also included to ensure the medium sterility, while Erythromycin and Amikacin served as positive controls. Bacterial growth was determined by adding 20 µL of 0.5% TTC (2,3,5-triphenyltetrazolium chloride) aqueous solution. […] All experiments were repeated three times. The bactericidal effect from each concentration of the pyrazole and pyrazolo[1,5-a]pyrimidine derivatives showing growth inhibition was further studied. For this study, a loopful of 5 µL was taken from each no-visible growth tube and streaked onto plates of TS agar.
(Dilution methods test growth across graded concentrations, often in twofold steps.)

Series [8] relates to S. aureus DH-432. As to the kind of experiment: Broth microdilution MIC/MBC. As to conditions: for MIC: Staphylococcus aureus, DH432, 24 h, read-out: MIC (Mean ± SEM); for MBC/MIC: value in brackets. It is filed as cell-based, Staphylococcus aureus. The method, then: as §2
Series [9] has as its system S. pyogenes DH-3467. Briefly: Broth microdilution MIC/MBC. It is filed as cell-based, Streptococcus pyogenes. As to conditions: for MIC: Streptococcus pyogenes, DH3467, 24 h, read-out: MIC (Mean ± SEM); for MBC/MIC: value in brackets. The method, then:
as §2

Series [10] relates to A. baumannii DH-243. Briefly: Broth microdilution MIC/MBC. It is filed as cell-based, Acinetobacter baumannii. As to conditions: for MIC: Acinetobacter baumannii, DH243, 24 h, read-out: MIC (Mean ± SEM); for MBC/MIC: value in brackets. As to the method:
as §2

The subject of series [11] is E. coli DH-5987. As to the kind of experiment: Broth microdilution MIC/MBC. As to conditions: E. coli DH-5987; for MBC/MIC: value in brackets; for MIC: Escherichia coli, DH5987, 24 h, read-out: MIC (Mean ± SEM). It is filed as cell-based, Escherichia coli. As to the method: as §2
In series [12] the test system is P. aeruginosa DH-5698. As to the kind of experiment: Broth microdilution MIC/MBC. It is filed as cell-based, Pseudomonus aeruginosa. As to conditions: for MIC: Pseudomonas aeruginosa, DH5698, 24 h, read-out: MIC (Mean ± SEM); for MBC/MIC: value in brackets. The method, then:
as §2

`CCOC(=O)c1ccc(N=Nc2c(N)nn(C(O)=CC#N)c2N)cc1` [Compound 4, Ethyl 4-((3,5-diamino-1-(2-cyano-1-hydroxyvinyl)-1H-pyrazol-4-yl)diazenyl)benzoate]: the melting point lay within 290 to 292 °C. In addition, the zone of inhibition at 10000 µM in [1] stood at 21.3 mm. Besides, the zone of inhibition at 10000 µM in series [2] turned out to be 22.4 mm. Also, the zone of inhibition at 10000 µM in series [3] turned out to be 22.1 mm. For the same compound, the zone of inhibition at 10000 µM in series [4] came out at 24.7 mm. In [5], the zone of inhibition at 10000 µM amounted to 23.4 mm. The zone of inhibition at 10000 µM in series [6] turned out to be 20.5 mm. For the same compound, in [7], the minimal inhibitory concentration (MIC) is 2 ± 0.3 µg/mL (≈ 5.86 µM) and the MBC/MIC worked out at 0.5. Moreover, in [8], the MIC came out at 1 ± 0.4 µg/mL (≈ 2.93 µM) and the MBC/MIC was 0.5. Also, in series [9], the minimum inhibitory concentration (MIC) amounted to 1.5 ± 0.3 µg/mL (≈ 4.39 µM) and the MBC/MIC was determined as 0.5. For the same compound, in [10], the MIC stood at 2 ± 0.4 µg/mL (≈ 5.86 µM) and the MBC/MIC was 0.5. For the same compound, in [11], the MBC/MIC is recorded as 1 and the MIC was found to be 0.75 ± 0.3 µg/mL (≈ 2.2 µM). Further, in series [12], the MIC was 1.5 ± 0.2 µg/mL (≈ 4.39 µM) and the MBC/MIC turned out to be 1.
As to `CCOC(=O)c1ccc(N=Nc2c(N=Cc3ccc(OC)cc3)n[nH]c2N)cc1` [Compound 5b, Ethyl-4-((5-amino-3-((4-methoxybenzylidene)amino)-1H-pyrazol-4-yl)diazenyl)benzoate], the melting point lay in the range of 210 to 212 °C. The zone of inhibition at 10000 µM in series [1] was determined as 23.4 mm. Also, the zone of inhibition at 10000 µM in series [2] worked out at 25.7 mm. For the same compound, the zone of inhibition at 10000 µM in [3] is 25.4 mm. In series [4], the zone of inhibition at 10000 µM was 26.2 mm. In series [5], the zone of inhibition at 10000 µM came out at 24.1 mm. Also, the zone of inhibition at 10000 µM in series [6] was 24.7 mm. Also, in series [7], the minimum inhibitory concentration (MIC) was 1.5 ± 0.3 µg/mL (≈ 3.82 µM) and the MBC/MIC is 1. In addition, in series [8], the MIC was found to be 1 ± 0.3 µg/mL (≈ 2.55 µM) and the MBC/MIC was 1. Moreover, in series [9], the MIC is 1 ± 0.2 µg/mL (≈ 2.55 µM) and the MBC/MIC turned out to be 1. Besides, in series [10], the MIC amounted to 2 ± 0.1 µg/mL (≈ 5.1 µM) and the MBC/MIC came to 0.5. Moreover, in series [11], the MBC/MIC was 0.5 and the minimal inhibitory concentration (MIC) came out at 1 ± 0.2 µg/mL (≈ 2.55 µM). Also, in series [12], the minimum inhibitory concentration (MIC) stood at 2 ± 0.3 µg/mL (≈ 5.1 µM) and the MBC/MIC was 1.
For `CCOC(=O)c1ccc(N=Nc2c(N)nn3c2N=C(C)CC3=O)cc1` [Compound 7, ethyl 4-((2-amino-5-methyl-7-oxo-6,7-dihydropyrazolo[1,5-a]pyrimidin-3-yl)diazenyl)benzoate], the melting point lay in the range of 296 to 298 °C. Besides, in [1], the zone of inhibition at 10000 µM came out at 24.5 mm. For the same compound, the zone of inhibition at 10000 µM in series [2] amounted to 25.8 mm. The zone of inhibition at 10000 µM in [3] amounted to 23 mm. Moreover, the zone of inhibition at 10000 µM in series [4] stood at 25.3 mm. In addition, the zone of inhibition at 10000 µM in series [5] was 22.8 mm. Besides, the zone of inhibition at 10000 µM in [6] came to 24 mm. In series [7], the minimal inhibitory concentration (MIC) amounted to 2 ± 0.4 µg/mL (≈ 5.88 µM) and the MBC/MIC is 1. In addition, in series [8], the minimal inhibitory concentration (MIC) worked out at 1 ± 0.3 µg/mL (≈ 2.94 µM) and the MBC/MIC is recorded as 1. In addition, in series [9], the minimal inhibitory concentration (MIC) came to 1.5 ± 0.2 µg/mL (≈ 4.41 µM) and the MBC/MIC amounted to 1. Besides, in series [10], the MIC turned out to be 2 ± 0.3 µg/mL (≈ 5.88 µM) and the MBC/MIC was determined as 1. Also, in [11], the MBC/MIC came out at 0.5 and the minimal inhibitory concentration (MIC) was determined as 1.5 ± 0.2 µg/mL (≈ 4.41 µM). Also, in series [12], the MIC came to 2 ± 0.3 µg/mL (≈ 5.88 µM) and the MBC/MIC was determined as 0.5.
For `CCOC(=O)c1ccc(N=Nc2c(N)nn3c(-c4ccc(Cl)cc4)cc(-c4ccccc4)nc23)cc1` [Compound 8c, Ethyl-4-((2-amino-7-(4-chlorophenyl)-5-phenylpyrazolo[1,5-a]pyrimidin-3-yl)diazenyl)benzoate], the zone of inhibition at 10000 µM in [1] was 15.2 mm; in series [2], 17.8 mm; in series [3], 15.1 mm; in series [4] it was 16.1 mm; in series [5], 15.4 mm; in [6], 16.3 mm. Besides, the MIC was determined as 8 ± 0.2 µg/mL (≈ 16.1 µM) in series [7]; 4 ± 0.1 µg/mL (≈ 8.05 µM) in series [8]; 4 ± 0.2 µg/mL (≈ 8.05 µM) in [9]; 8 ± 0.4 µg/mL (≈ 16.1 µM) in series [10]; 4 ± 0.1 µg/mL (≈ 8.05 µM) in series [11]; 8 ± 0.3 µg/mL (≈ 16.1 µM) in series [12]. The MBC/MIC was found to be 2 in series [7]; 1 in [8]; 2 in series [9]; 2 in series [10]; 2 in [11]; 2 in series [12].
